Reference: patent US20080152719A1, “Multiparticulate Pharmaceutical Form Comprising Pellets With a Matrix Which Influences the Delivery of a Modulatory Substance” (ROEHM GMBH, priority 2005, published 2008)

Test: Effect of modulating substances on active ingredient delivery in vitro
Type: physicochemical
Conditions: for effect of modulating substance on rate of active ingredient delivery: in the multilayer pharmaceutical form; for activity of modulating substance in purified water versus phosphate buffer pH 6,8: in-vitro, purified water vs phosphate buffer pH 6,8 (Pharm. Eur.)
Source text: In the human and animal gastrointestinal tract the concentration of ions may vary to a certain extent and thus may influence the activity of the modulating substances. For reproducible in-vivo results substances having a modulating effect, which are not or only a little influenced by varying ionic strength are preferred.

Row | Structure (SMILES) | effect of modulating substance on rate of active ingredient delivery | activity of modulating substance in purified water versus phosphate buffer pH 6,8
1 | CC(=O)[O-].[Na+] [Na acetate] | increase the rate of active ingredient delivery | –
2 | O=C([O-])CC(O)(CC(=O)[O-])C(=O)[O-].[Na+].[Na+].[Na+] [Na citrate] | decrease the rate of active ingredient delivery | –
3 | O=C(O)CC(O)(CC(=O)O)C(=O)O [citric acid] | increase the rate of active ingredient delivery | almost the same activity
4 | [Cl-].[Na+] [sodium chloride] | decrease the rate of active ingredient delivery | almost the same activity
5 | O=C([O-])CCC(=O)[O-].[Na+].[Na+] [sodium succinate] | increase the rate of active ingredient delivery | almost the same activity
